Measured values as given in patent US20240009232A1, “COMBINATION THERAPY COMPRISING HER-2-DC1 VACCINE AND A PROBIOTIC” (H. LEE MOFFITT CANCER CENTER AND RESEARCH INSTITUTE, INC., priority 2021, published 2024).

System: TUBO tumors
Assay: Mono- and combination therapies in HER2+ TUBO bearing mice (FIG. 8, FIG. 9)
Assay type: in vivo, Balb/C mice
Details: monotherapy
Protocol: Balb/C mice or C57BL/6 mice received tumor cells on day 0 followed by different treatments; two doses of Taxol given intraperitoneally (i.p.) once a week; CDK inhibitor, abemaciclib was administered by oral gavage till end point; Anti-PD-L1 was given i.p. twice a week until end point; DC1 vaccine was given intratumorally.
Balb/C mice bearing TUBO tumors were treated with intratumoral HER2-DC1 vaccine alone or anti-HER2 antibody or a combination of both.
TUBO bearing mice were treated with intratumoral HER2-DC1 vaccine alone or Abemaciclib or a combination of both.
Here, we can investigate the role of gut microbiome in response to combination therapy. […] Balb/C mice bearing TUBO tumors were treated with intratumoral HER-DC1 alone or anti-HER2 antibody (7.16.4+7.9.5) alone or combination of both. While CDK inhibitor, abemaciclib was given daily by oral gavage alone or in combination with intratumoral HER2-DC1.

For `CC(=O)O[C@H]1C(=O)[C@@]2(C)[C@H]([C@H](OC(=O)c3ccccc3)[C@]3(O)C[C@H](OC(=O)[C@H](O)[C@@H](NC(=O)c4ccccc4)c4ccccc4)C(C)=C1C3(C)C)[C@]1(OC(C)=O)CO[C@@H]1C[C@@H]2O` [taxol, paclitaxel], the tumor growth was “modestly delayed tumor growth”.
